Among the data in patent publication US20070032529A1, “Pyrazole compounds and their use as antidiabetes agents” (Japan Tobacco Inc., priority 2005, published 2007) are IC50 and inhibition values, retold here.

Usually IC50 stands for the concentration needed to halve the response being measured.

Read-outs that look alike come from different tables or passages of the source.

The assay deals with T1, recombinant human liver glycogen phosphorylase (Homo sapiens, UniProt P06737).
T1 construct: made in house; host or cells: Sf9 insect cells (crude homogenate, diluted, used as the enzyme solution)
T1 sequence (P06737 1-847): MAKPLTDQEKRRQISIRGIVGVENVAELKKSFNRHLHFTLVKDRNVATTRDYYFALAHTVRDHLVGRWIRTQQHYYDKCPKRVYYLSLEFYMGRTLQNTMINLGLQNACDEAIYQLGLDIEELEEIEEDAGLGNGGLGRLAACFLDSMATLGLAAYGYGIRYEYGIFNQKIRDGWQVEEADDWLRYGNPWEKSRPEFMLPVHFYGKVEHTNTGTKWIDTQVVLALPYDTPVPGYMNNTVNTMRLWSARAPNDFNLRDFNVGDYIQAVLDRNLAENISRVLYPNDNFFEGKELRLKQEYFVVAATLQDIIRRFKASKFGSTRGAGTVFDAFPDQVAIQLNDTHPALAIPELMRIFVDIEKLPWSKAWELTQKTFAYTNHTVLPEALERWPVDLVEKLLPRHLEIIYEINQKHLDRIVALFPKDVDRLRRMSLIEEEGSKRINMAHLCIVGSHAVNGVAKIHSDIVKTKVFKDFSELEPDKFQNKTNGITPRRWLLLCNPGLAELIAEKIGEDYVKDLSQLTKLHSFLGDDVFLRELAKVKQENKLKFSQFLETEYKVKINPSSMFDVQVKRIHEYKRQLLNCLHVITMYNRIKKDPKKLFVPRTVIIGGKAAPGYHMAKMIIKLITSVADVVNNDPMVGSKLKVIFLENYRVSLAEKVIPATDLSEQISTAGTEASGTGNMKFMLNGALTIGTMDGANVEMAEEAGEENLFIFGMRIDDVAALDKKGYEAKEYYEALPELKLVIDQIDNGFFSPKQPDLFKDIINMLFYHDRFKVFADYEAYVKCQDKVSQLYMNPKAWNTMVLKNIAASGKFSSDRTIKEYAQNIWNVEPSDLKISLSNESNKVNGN
Put plainly: Measuring liver glycogen phosphorylase activity (forward reaction system, NADPH absorbance at 340 nm). It is filed as biochemical. The settings on record: for inhibition at 0.1 µM: figure in brackets (100), read-out: IC50: % value given with (100); for inhibition at 1 µM: compound concentration 1000 nmol (in parentheses). How it is done:
[Pharmacological Test] 1. Exemplary Test (1) Method for Measuring Liver Glycogen Phosphorylase Activity
The measurement of glycogen phosphorylase activity was carried out by a method using the forward reaction system.
The measurement of glycogen phosphorylase activity using the forward reaction system was carried out as follows. Glucose-1-phosphate prepared from glycogen by glycogen phosphorylase was converted into glucono-δ-lactone 6-phosphate through transphosphorylation and dehydrogenation using phosphoglucomutase and glucose-6-phosphate dehydrogenase (G6PDH). NADPH generated from NADP during the dehydrogenation by G6PDH was detected.
A homogenate of the Sf9 cells which expressed exogenously recombinant human liver glycogen phosphorylase was diluted with 100 mmol/LBES buffer solution (pH 6.8, containing 2 mmol/L EDTA) and the dilution was used as the enzyme solution of human liver glycogen phosphorylase. As the substrate, a phosphate buffer (containing 16 mmol/L KH2PO4, 24 mmol/L Na2HPO4) was used. A mixture of 8 U/mL phosphoglucomutase and 60 U/mL G6PDH was prepared in BES buffer solution. Buffer solution (containing 1.4 mmol/L NADP, 30 mmol/L MgCl2, 8 μmol/L glucose-1,6-diphosphate, 8 mg/mL glycogen, 40 mmol/LBES, 0.8 mmol/L EDTA) for reaction and a glucose solution (containing 75 mmol/L glucose, 100 mmol/LBES, 2 mmol/L EDTA) were prepared individually. The test compound was dissolved in 1% DMSO solution.
The enzymatic reaction was begun by adding 20 μL of the recombinant human liver glycogen phosphorylase solution and 20 μL of the mixture of phosphoglucomutase and G6PDH to the mixture of 20 μL of the glucose solution, 20 μL of the substrate, 100 μL of the buffer solution for reaction and 20 μL of the test compound solution. As control, 1% DMSO solution was added instead of the test compound. The mixture without the substrate was used as blank. The absorbance at 340 nm was measured immediately after the reaction started. The absorbance at 340 nm was measured again after reacting at room temperature for 75 minutes. The enzymatic activity is a value obtained by subtracting the blank variation in absorbance over 75 minutes from the variation in absorbance over 75 minutes.
The inhibition rate (%) of the test compound was calculated by the expression “(1-enzymatic activity of test compound/enzymatic activity of control)×100.”
A linear equation was determined from the two concentration points with the 50% inhibition rate therebetween, and the IC50 value was calculated from the concentration at the intersection of the line with the 50% inhibition rate.
“IC50” in the tables indicates the above-described enzyme inhibitory activity with respect to liver glycogen phosphorylase, and the activity to inhibit liver glycogen phosphorylase was represented as ++ when the IC50 value (nmol/L) was less than 100 nmol/L, as + when the IC50 value was between 100 nmol/L and 300 nmol/L. When IC50 is 300 nmol/L or more, an inhibition rate (%) at a certain concentration of the compound (I) of the present invention is shown in Tables. For example, when the inhibition rate is 20% at a concentration of 300 nmol, the rate is described as 20% (300).

Where [1] appears, read: enzyme inhibitory activity with respect to liver glycogen phosphorylase, class symbols.
[2] abbreviates: read-out: inhibition rate (%) at a certain concentration.
Setting [3] is: compound concentration 300 nmol (in parentheses), read-out: inhibition rate (%) at a certain concentration.
[4] abbreviates: figure in brackets (300), read-out: IC50 column: % value printed with (300).
The mark [5] stands for this setting: human liver glycogen phosphorylase, class symbol.

For the molecule `O=C(NCc1c(F)cccc1Cl)c1cc(NC(=O)c2cc(F)c(F)cc2Cl)[nH]n1` [Example 1-36], the concentration for half-maximal inhibition (IC50) under setting [1] was < 100 nM. For `COc1ccsc1CNC(=O)c1cc(NC(=O)c2cc(F)c(F)cc2Cl)[nH]n1` [Example 1-160], the IC50 under setting [1] is < 100 nM.

As to `CCOC1(C)Nc2ccccc2CN1C(=O)c1cc(NC(=O)c2cc(F)c(F)cc2Cl)[nH]n1` (stereo not drawn) [Example 6-47], the inhibition at 0.1 µM was 41.1%. With `CCCCN(C(=O)c1cc(NC(=O)c2cc(F)c(F)cc2Cl)[nH]n1)C1CCSCC1` [Example 1-105], under setting [1], the IC50 fell in the range of 100 to 300 nM. The same measure, in the same setting: for `O=C(NCCN1CCOCC1)c1ccc(CNC(=O)c2cc(NC(=O)c3cc(F)c(F)cc3Cl)[nH]n2)cc1` [Example 5-4] the value was < 100 nM; for `COC(=O)CNC(=O)c1ccc(CNC(=O)c2cc(NC(=O)c3cc(F)c(F)cc3Cl)[nH]n2)cc1` [Example 1-43], < 100 nM.

Turning to `COC(=O)[C@@H](NC(=O)c1cc(NC(=O)c2cc(F)c(F)cc2Cl)[nH]n1)c1ccccc1` [Example 3-13], the inhibition at 1 µM under setting [2] came to 25.5%.

Consider `CCCCN(C(=O)c1cc(NC(=O)c2cc(F)c(F)cc2Cl)[nH]n1)C1CCC(C(=O)OC(C)(C)C)CC1` (stereo not drawn) [Example 1-104], for which, under setting [3], the inhibition at 0.3 µM stood at 32.3%. For the molecule `CS(=O)(=O)Nc1ccc(CNC(=O)c2cc(NC(=O)c3cc(F)c(F)cc3Cl)[nH]n2)cc1` [Example 2-16], the IC50 under setting [1] is < 100 nM. On to `CN(C(=O)c1cc(NC(=O)c2cc(F)c(F)cc2Cl)[nH]n1)c1ccc(C(=O)OCOC(=O)C(C)(C)C)cc1` [Example 6-13], for which the inhibition at 0.1 µM was determined as 17.5%.

Take `O=C(Nc1cc(C(=O)N2CCC(C(=O)O)CC2)n[nH]1)c1cc(F)c(F)cc1Cl` [Example 3-8]: under setting [2], the inhibition at 1 µM turned out to be 11.7%. As for `Cc1nc(CNC(=O)c2cc(NC(=O)c3cc(F)c(F)cc3Cl)[nH]n2)cs1` [Example 1-45], the IC50 under setting [1] is < 100 nM. For `Cc1ccc(C)c(C(=O)Nc2cc(C(=O)NCc3ccccc3)n[nH]2)c1` [Example 4-35], under setting [3], the inhibition at 0.3 µM is 9.7%.

Consider `CCCCN(CCCC)C(=O)c1cc(NC(=O)c2cc(F)c(F)cc2Cl)[nH]n1` [Example 1-93], for which the IC50 under setting [1] is < 100 nM. Same read-out and setting: for `O=C(NCc1ccc(C(F)(F)F)cc1)c1cc(NC(=O)c2cc(F)c(F)cc2Cl)[nH]n1` [Example 1-29] the value was < 100 nM.

In the case of `O=C(Nc1cc(C(=O)N(Cc2ccccc2)Cc2ccccc2)n[nH]1)c1cc(F)c(F)cc1Cl` [Example 1-74], the concentration for half-maximal inhibition (IC50) under setting [1] fell in the range of 100 to 300 nM. Same read-out and setting: for `CN(C)C1CCN(c2ccc(CNC(=O)c3cc(NC(=O)c4cc(F)c(F)cc4Cl)[nH]n3)cn2)CC1` [Example 5-40] the value was < 100 nM. Still for that read-out and setting: for `O=C(NCc1cccnc1)c1cc(NC(=O)c2cc(F)c(F)cc2Cl)[nH]n1` [Example 1-1, 5-(2-chloro-4,5-difluoro-benzoylamino)-1H-pyrazole-3-carboxylic acid (pyridin-3-ylmethyl)-amide] the value was < 100 nM; for `COCCN(C)C(=O)c1cc(NC(=O)c2cc(F)c(F)cc2Cl)[nH]n1` [Example 1-6], 100 to 300 nM. For `CN(C(=O)c1cc(NC(=O)c2cc(F)c(F)cc2Cl)[nH]n1)c1cccc(C(=O)O)c1` [Example 2-14], the inhibition at 0.3 µM under setting [3] came to 37.5%. `CN(C(=O)c1cc(NC(=O)c2cc(F)c(F)cc2Cl)[nH]n1)c1ccc(-c2nnc[nH]2)cc1` [Example 6-8]: the inhibition at 0.3 µM under setting [4] was found to be 11.7%. With `CCN(C=Nc1ccc(CNC(=O)c2cc(NC(=O)c3cc(F)c(F)cc3Cl)[nH]n2)cc1)CC` [Example 6-29], the IC50 under setting [5] is < 100 nM. On the same count and under the same terms, for `CC(=N)Nc1ccc(CNC(=O)c2cc(NC(=O)c3cc(F)c(F)cc3Cl)[nH]n2)cc1` [Example 6-32] the value was < 100 nM.

For the molecule `CNC(=O)c1ccc(N(C)C(=O)c2cc(NC(=O)c3cc(F)c(Cl)cc3Cl)[nH]n2)cc1` [Example 6-3], the inhibition at 0.3 µM under setting [4] stood at 9.7%.

As for `O=C(NCc1ccc(-c2ccccc2)nc1)c1cc(NC(=O)c2cc(F)c(F)cc2Cl)[nH]n1` [Example 2-32], under setting [1], the IC50 is < 100 nM.

Turning to `CCOC(=O)CCN(Cc1ccccc1)C(=O)c1cc(NC(=O)c2cc(F)c(F)cc2Cl)[nH]n1` [Example 1-132], the IC50 under setting [1] was < 100 nM. Same read-out and setting: for `COC(=O)CCNC(=O)c1ccc(CNC(=O)c2cc(NC(=O)c3cc(F)c(F)cc3Cl)[nH]n2)cc1` [Example 1-44] the value was < 100 nM. On to `Cc1cc(F)c(F)cc1C(=O)Nc1cc(C(=O)NCc2ccnc(-c3nnn[nH]3)c2)n[nH]1` [Example 7-16], for which the IC50 under setting [5] was < 100 nM. For the molecule `O=C(Nc1ccccc1)c1cc(NC(=O)c2cc(F)c(F)cc2Cl)[nH]n1` [Example 3-3], under “compound concentration 640 nmol (in parentheses), read-out: inhibition rate (%) at a certain concentration”, the inhibition at 0.64 µM amounted to 50%. As to `CN(C(=O)c1cc(NC(=O)c2cc(F)c(F)cc2Cl)[nH]n1)c1ccc(-c2noc(=S)[nH]2)cc1` [Example 6-15], the IC50 under setting [5] was < 100 nM. With `O=C(NCc1ccccc1)c1cc(NC(=O)c2cc(F)ccc2Cl)[nH]n1` [Example 4-8], under setting [1], the IC50 was 100 to 300 nM. In the case of `O=C(Nc1cc(C(=O)N2C=Nc3ccc(F)cc3C2)n[nH]1)c1cc(F)c(F)cc1Cl` [Example 6-46], under setting [5], the IC50 is < 100 nM. `O=C(O)CCN(C(=O)c1cc(NC(=O)c2cc(F)c(F)cc2Cl)[nH]n1)c1ccccc1` [Example 4-27]: the IC50 under setting [1] is 100 to 300 nM. For `CC(=Nc1cccc(CNC(=O)c2cc(NC(=O)c3cc(F)c(F)cc3Cl)[nH]n2)c1)N(C)C` [Example 6-25], under setting [5], the IC50 is < 100 nM. As to `NC(=O)c1ccc(CNC(=O)c2cc(NC(=O)c3cc(F)c(F)cc3Cl)[nH]n2)cc1` [Example 1-122], the IC50 under setting [1] is < 100 nM. Turning to `O=C(Nc1cc(C(=O)N(CCCCO)Cc2ccccc2)n[nH]1)c1cc(F)c(F)cc1Cl` [Example 1-86], the inhibition at 0.3 µM under setting [3] came out at 17%. Consider `Cc1nc(C)c(CNC(=O)c2cc(NC(=O)c3cc(F)c(F)cc3Cl)[nH]n2)o1` [Example 1-2-2, 5-(2-chloro-4,5-difluoro-benzoylamino)-1H-pyrazole-3-carboxylic acid (2,4-dimethyl-oxazol-5-ylmethyl)-amide p-toluenesulfonate], for which the IC50 under setting [1] was < 100 nM.

`CC(C)OCCN(C(=O)c1cc(NC(=O)c2cc(F)c(F)cc2Cl)[nH]n1)C1CCCCC1` [Example 1-101]: the IC50 under setting [1] is < 100 nM.

Regarding `O=C(O)CN(C(=O)c1cc(NC(=O)c2cc(F)c(F)cc2Cl)[nH]n1)c1ccccc1` [Example 4-5], the IC50 under setting [1] was 100 to 300 nM. As to `O=C(NCc1ccccc1)c1cc(NC(=O)c2cc(F)ccc2C(F)(F)F)[nH]n1` [Example 4-33], under setting [3], the inhibition at 0.3 µM worked out at 15.2%. In the case of `O=C(Nc1cc(C(=O)N2C=Nc3ccccc3C2)n[nH]1)c1cc(F)c(F)cc1Cl` [Example 6-44], the IC50 under setting [5] is < 100 nM.

For `O=C(NCc1ccc(Oc2ccccc2)nc1)c1cc(NC(=O)c2cc(F)c(F)cc2Cl)[nH]n1` [Example 2-22], the IC50 under setting [1] is < 100 nM.
